Measured values from patent US20110039721A1, “METHOD FOR PREDICTION ABOUT CARCINOGENICITY OF SUBSTANCE IN RODENT” (Chemicals Evaluation and Research Institute, priority 2007, published 2011).

Legend:
[1] = system: mRNA expressed from the genes (A) to (D) in rat liver; assay: Behavior of genes (mRNA expression level, oligo-DNA microarray) in rat liver after 28-day oral administration; format: in vivo; settings: for Behavior of gene caused by administration of chemical substance, Gene No. 4846 / Behavior of gene caused by administration of chemical substance, Gene No. 2026 / Behavior of gene caused by administration of chemical substance, Gene No. 4218 / Behavior of gene caused by administration of chemical substance, Gene No. 6182 / Behavior of gene caused by administration of chemical substance, Gene No. 5600: gene group (A); for Behavior of gene caused by administration of chemical substance, Gene No. 4846: Unigene No. Rn.144554; for Behavior of gene caused by administration of chemical substance, Gene No. 2026 / Behavior of gene caused by administration of chemical substance, Gene No. 4218: Unigene No. Rn.167075; for Behavior of gene caused by administration of chemical substance, Gene No. 6182: Unigene No. Rn.5834; for Behavior of gene caused by administration of chemical substance, Gene No. 5600: Unigene No. Rn.9836; for Behavior of gene caused by administration of chemical substance, Gene No. 1494 / Behavior of gene caused by administration of chemical substance, Gene No. 2045 / Behavior of gene caused by administration of chemical substance, Gene No. 2203: gene group (B); for Behavior of gene caused by administration of chemical substance, Gene No. 1494: Unigene No. Rn.1430; for Behavior of gene caused by administration of chemical substance, Gene No. 2045: Unigene No. Rn.19329; for Behavior of gene caused by administration of chemical substance, Gene No. 2203: Unigene No. Rn.21240; for Behavior of gene caused by administration of chemical substance, Gene No. 533 / Behavior of gene caused by administration of chemical substance, Gene No. 725 / Behavior of gene caused by administration of chemical substance, Gene No. 1163 / Behavior of gene caused by administration of chemical substance, Gene No. 4973 / Behavior of gene caused by administration of chemical substance, Gene No. 4095 / Behavior of gene caused by administration of chemical substance, Gene No. 1334 / Behavior of gene caused by administration of chemical substance, Gene No. 6620 / Behavior of gene caused by administration of chemical substance, Gene No. 6303 / Behavior of gene caused by administration of chemical substance, Gene No. 5878 / Behavior of gene caused by administration of chemical substance, Gene No. 1131 / Behavior of gene caused by administration of chemical substance, Gene No. 1562 / Behavior of gene caused by administration of chemical substance, Gene No. 1741 / Behavior of gene caused by administration of chemical substance, Gene No. 893 / Behavior of gene caused by administration of chemical substance, Gene No. 6026 / Behavior of gene caused by administration of chemical substance, Gene No. 154 / Behavior of gene caused by administration of chemical substance, Gene No. 1993 / Behavior of gene caused by administration of chemical substance, Gene No. 813 / Behavior of gene caused by administration of chemical substance, Gene No. 2494 / Behavior of gene caused by administration of chemical substance, Gene No. 2546 / Behavior of gene caused by administration of chemical substance, Gene No. 3776 / Behavior of gene caused by administration of chemical substance, Gene No. 3929 / Behavior of gene caused by administration of chemical substance, Gene No. 1119 / Behavior of gene caused by administration of chemical substance, Gene No. 6742 / Behavior of gene caused by administration of chemical substance, Gene No. 5634: gene group (C); for Behavior of gene caused by administration of chemical substance, Gene No. 533: Unigene No. Rn.106184; for Behavior of gene caused by administration of chemical substance, Gene No. 725: Unigene No. Rn.108075; for Behavior of gene caused by administration of chemical substance, Gene No. 1163: Unigene No. Rn.11766; for Behavior of gene caused by administration of chemical substance, Gene No. 4973: Unigene No. Rn.118529; for Behavior of gene caused by administration of chemical substance, Gene No. 4095: Unigene No. Rn.119024; for Behavior of gene caused by administration of chemical substance, Gene No. 1334 / Behavior of gene caused by administration of chemical substance, Gene No. 6620: Unigene No. Rn.120914; for Behavior of gene caused by administration of chemical substance, Gene No. 6303: Unigene No. Rn.123063; for Behavior of gene caused by administration of chemical substance, Gene No. 5878: Unigene No. Rn.143213; for Behavior of gene caused by administration of chemical substance, Gene No. 1131: Unigene No. Rn.144946; for Behavior of gene caused by administration of chemical substance, Gene No. 1562: Unigene No. Rn.14744; for Behavior of gene caused by administration of chemical substance, Gene No. 1741: Unigene No. Rn.1647; for Behavior of gene caused by administration of chemical substance, Gene No. 893: Unigene No. Rn.164817; for Behavior of gene caused by administration of chemical substance, Gene No. 6026: Unigene No. Rn.167685; for Behavior of gene caused by administration of chemical substance, Gene No. 154: Unigene No. Rn.185941; for Behavior of gene caused by administration of chemical substance, Gene No. 1993: Unigene No. Rn.18728; for Behavior of gene caused by administration of chemical substance, Gene No. 813: Unigene No. Rn.201760; for Behavior of gene caused by administration of chemical substance, Gene No. 2494: Unigene No. Rn.23969; for Behavior of gene caused by administration of chemical substance, Gene No. 2546: Unigene No. Rn.24561; for Behavior of gene caused by administration of chemical substance, Gene No. 3776: Unigene No. Rn.43232; for Behavior of gene caused by administration of chemical substance, Gene No. 3929: Unigene No. Rn.4620; for Behavior of gene caused by administration of chemical substance, Gene No. 1119: Unigene No. Rn.9757; for Behavior of gene caused by administration of chemical substance, Gene No. 6742: Unigene No. Rn.9779; for Behavior of gene caused by administration of chemical substance, Gene No. 5634: Unigene No. Rn.9862; for Behavior of gene caused by administration of chemical substance, Gene No. 5726: gene group (D), Unigene No. Rn.9939
How it was run: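 Liver mRNA measured by oligo-DNA microarray after 28 days of once-daily oral gavage in 5-week-old male F344 rats (n=4 per group), with vehicle controls given equal solvent volume. Significance threshold: 1.5-fold up or down versus control, with changes opposite in direction to other carcinogens counted as not significant.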

[2] = system: liver; settings: classification of the substance (Cr+/Cr−); cited from earlier work
[3] = system: rodent; settings: classification of the substance (C+/C−); cited from earlier work
[4] = classification of the substance (M+/M−); cited from earlier work

Row | Structure (SMILES) | Behavior of gene caused by administration of chemical substance, Gene No. 4846 [1] | Behavior of gene caused by administration of chemical substance, Gene No. 2026 [1] | Behavior of gene caused by administration of chemical substance, Gene No. 4218 [1] | Behavior of gene caused by administration of chemical substance, Gene No. 6182 [1] | Behavior of gene caused by administration of chemical substance, Gene No. 5600 [1] | Behavior of gene caused by administration of chemical substance, Gene No. 1494 [1] | Behavior of gene caused by administration of chemical substance, Gene No. 2045 [1] | Behavior of gene caused by administration of chemical substance, Gene No. 2203 [1] | Behavior of gene caused by administration of chemical substance, Gene No. 533 [1] | Behavior of gene caused by administration of chemical substance, Gene No. 725 [1] | Behavior of gene caused by administration of chemical substance, Gene No. 1163 [1] | Behavior of gene caused by administration of chemical substance, Gene No. 4973 [1] | Behavior of gene caused by administration of chemical substance, Gene No. 4095 [1] | Behavior of gene caused by administration of chemical substance, Gene No. 1334 [1] | Behavior of gene caused by administration of chemical substance, Gene No. 6620 [1] | Behavior of gene caused by administration of chemical substance, Gene No. 6303 [1] | Behavior of gene caused by administration of chemical substance, Gene No. 5878 [1] | Behavior of gene caused by administration of chemical substance, Gene No. 1131 [1] | Behavior of gene caused by administration of chemical substance, Gene No. 1562 [1] | Behavior of gene caused by administration of chemical substance, Gene No. 1741 [1] | also measured
1 | CC(=O)Oc1ccccc1C(=O)O [TS071, Aspirin] | − | − | − | − | − | − | − | − | − | − | − | − | − | − | − | − | − | + | − | − | Behavior of gene caused by administration of chemical substance, Gene No. 893 [1]: −; Behavior of gene caused by administration of chemical substance, Gene No. 6026 [1]: −; Behavior of gene caused by administration of chemical substance, Gene No. 154 [1]: −; Behavior of gene caused by administration of chemical substance, Gene No. 1993 [1]: −; Behavior of gene caused by administration of chemical substance, Gene No. 813 [1]: −; Behavior of gene caused by administration of chemical substance, Gene No. 2494 [1]: −; Behavior of gene caused by administration of chemical substance, Gene No. 2546 [1]: −; Behavior of gene caused by administration of chemical substance, Gene No. 3776 [1]: −; Behavior of gene caused by administration of chemical substance, Gene No. 3929 [1]: −; Behavior of gene caused by administration of chemical substance, Gene No. 1119 [1]: −; Behavior of gene caused by administration of chemical substance, Gene No. 6742 [1]: −; Behavior of gene caused by administration of chemical substance, Gene No. 5634 [1]: −; Behavior of gene caused by administration of chemical substance, Gene No. 5726 [1]: −; Liver carcinogenicity [2]: Cr−; Carcinogenicity [3]: C−; Mutagenicity by Ames test [4]: M−
2 | Cc1ccc(N)cc1Cl [TS080, 3-Chloro-p-toluidine] | + | + | + | + | + | + | − | + | + | + | − | + | + | − | − | − | − | − | − | − | Behavior of gene caused by administration of chemical substance, Gene No. 893 [1]: +; Behavior of gene caused by administration of chemical substance, Gene No. 6026 [1]: −; Behavior of gene caused by administration of chemical substance, Gene No. 154 [1]: +; Behavior of gene caused by administration of chemical substance, Gene No. 1993 [1]: −; Behavior of gene caused by administration of chemical substance, Gene No. 813 [1]: +; Behavior of gene caused by administration of chemical substance, Gene No. 2494 [1]: −; Behavior of gene caused by administration of chemical substance, Gene No. 2546 [1]: +; Behavior of gene caused by administration of chemical substance, Gene No. 3776 [1]: −; Behavior of gene caused by administration of chemical substance, Gene No. 3929 [1]: −; Behavior of gene caused by administration of chemical substance, Gene No. 1119 [1]: −; Behavior of gene caused by administration of chemical substance, Gene No. 6742 [1]: −; Behavior of gene caused by administration of chemical substance, Gene No. 5634 [1]: −; Behavior of gene caused by administration of chemical substance, Gene No. 5726 [1]: +; Liver carcinogenicity [2]: Cr−; Carcinogenicity [3]: C−; Mutagenicity by Ames test [4]: M−
